# *1 amine or outer side, *2 acyl side, *3 side chain or, on linkers, in order; H or OH if unused. Where a SMILES comes first, the peptide text is derived from it. Side-chain parts run from the residue outwards. γGlu = O=C(O)[C@H](CCC(=O)[*:2])N[*:1]
# Biological target: T1, glucagon receptor (Homo sapiens, UniProt P47871)
# T1 construct: expressed in transfected cells
# Assay: Assay (I) Glucagon activity (cAMP biosensor, FLIPR)
# Assay type: cell-based
# Details: HEK-293 cells with cloned glucagon receptor and cAMP biosensor; end point after 6 minutes
# Method in brief: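 HEK-293 cells expressing glucagon receptor with membrane cAMP biosensor (ACTOne), calcium-dye loaded with probenecid and a PDE inhibitor.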
# T1 sequence (P47871 26-477): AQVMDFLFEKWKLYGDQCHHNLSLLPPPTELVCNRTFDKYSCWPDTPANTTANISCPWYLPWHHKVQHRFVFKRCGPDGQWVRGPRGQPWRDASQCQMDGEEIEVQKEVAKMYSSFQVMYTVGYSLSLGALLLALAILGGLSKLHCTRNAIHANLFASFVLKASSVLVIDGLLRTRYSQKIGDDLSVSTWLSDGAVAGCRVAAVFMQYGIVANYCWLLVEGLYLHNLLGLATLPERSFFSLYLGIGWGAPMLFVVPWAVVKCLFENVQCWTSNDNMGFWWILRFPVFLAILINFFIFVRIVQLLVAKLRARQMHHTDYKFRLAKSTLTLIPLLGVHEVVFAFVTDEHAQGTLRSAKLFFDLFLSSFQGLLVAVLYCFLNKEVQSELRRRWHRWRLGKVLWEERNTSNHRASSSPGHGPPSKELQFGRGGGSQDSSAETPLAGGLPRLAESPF
row,SMILES,EC50 [nM]
1,"CC(=O)N[C@@H](CCC(=O)N[C@@H](CCC(=O)N[C@@H](CCC(=O)N[C@@H](CCC(=O)NCCCC[C@H](NC(=O)[C@@H](NC(=O)[C@H](Cc1ccccc1)NC(=O)[C@H](CC(=O)O)NC(=O)[C@H](CCC(N)=O)NC(=O)[C@H](C)NC(=O)[C@H](CCCNC(=N)N)NC(=O)[C@H](CCCNC(=N)N)NC(=O)[C@H](CC(C)C)NC(=O)[C@H](CC(=O)O)NC(=O)[C@H](CC(C)C)NC(=O)[C@H](Cc1ccc(O)cc1)NC(=O)[C@H](CCCCN)NC(=O)[C@H](CO)NC(=O)[C@H](Cc1ccc(O)cc1)NC(=O)[C@H](CC(=O)O)NC(=O)[C@H](CO)NC(=O)[C@@H](NC(=O)[C@H](Cc1ccccc1)NC(=O)[C@@H](NC(=O)CNC(=O)[C@H](CCC(N)=O)NC(=O)CNC(=O)[C@@H](N)Cc1c[nH]cn1)[C@@H](C)O)[C@@H](C)O)C(C)C)C(=O)N[C@@H](Cc1c[nH]c2ccccc12)C(=O)N[C@@H](CC(C)C)C(=O)N[C@@H](CC(C)C)C(=O)N[C@@H](CO)C(=O)N[C@H](C(=O)O)[C@@H](C)O)C(=O)O)C(=O)O)C(=O)O)C(=O)O [Example 55, N^ε24-[(4S)-4-[[(4S)-4-[[(4S)-4-[[(4S)-4-acetamido-4-carboxybutanoyl]amino]-4-carboxybutanoyl]amino]-4-carboxybutanoyl]amino]-4-carboxybutanoyl]-[Gly^2,Leu^16,Lys^24,Leu^27,Ser^28]-Glucagon] (H-HGQGTFTSDYSKYLDLRRAQDFVK([γGlu-γGlu-γGlu-γGlu-Ac])WLLST-OH)",0.051
2,"CC(=O)N[C@@H](CCC(=O)N[C@@H](CCC(=O)N[C@@H](CCC(=O)N[C@@H](CCC(=O)NCCCC[C@H](NC(=O)[C@@H](NC(=O)[C@H](Cc1ccccc1)NC(=O)[C@H](CC(=O)O)NC(=O)[C@H](CCC(=O)O)NC(=O)[C@H](C)NC(=O)[C@H](CCCNC(=N)N)NC(=O)[C@H](CCCNC(=N)N)NC(=O)[C@H](CC(C)C)NC(=O)[C@H](CC(=O)O)NC(=O)[C@H](CC(C)C)NC(=O)[C@H](Cc1ccc(O)cc1)NC(=O)[C@H](CCCNC(=N)N)NC(=O)[C@H](CO)NC(=O)[C@H](Cc1ccc(O)cc1)NC(=O)[C@H](CC(=O)O)NC(=O)[C@H](CO)NC(=O)[C@@H](NC(=O)[C@H](Cc1ccccc1)NC(=O)[C@@H](NC(=O)CNC(=O)[C@H](CCC(N)=O)NC(=O)[C@H](CO)NC(=O)[C@@H](N)Cc1c[nH]cn1)[C@@H](C)O)[C@@H](C)O)C(C)C)C(=O)N[C@@H](Cc1c[nH]c2ccccc12)C(=O)N[C@@H](CC(C)C)C(=O)N[C@@H](CC(C)C)C(=O)N[C@@H](CO)C(=O)N[C@H](C(=O)O)[C@@H](C)O)C(=O)O)C(=O)O)C(=O)O)C(=O)O [Example 57, N^ε24-[(4S)-4-[[(4S)-4-[[(4S)-4-[[(4S)-4-acetamido-4-carboxybutanoyl]amino]-4-carboxybutanoyl]amino]-4-carboxybutanoyl]amino]-4-carboxybutanoyl]-[Arg^12,Leu^16,Glu^20,Lys^24,Leu^27,Ser^28]-Glucagon] (H-HSQGTFTSDYSRYLDLRRAEDFVK([γGlu-γGlu-γGlu-γGlu-Ac])WLLST-OH)",0.017

# Further lines, results first:
row,EC50 [nM],SMILES
1,0.007,"CC(=O)N[C@@H](CCC(=O)N[C@@H](CCC(=O)N[C@@H](CCC(=O)N[C@@H](CCC(=O)NCCCC[C@H](NC(=O)[C@H](CC(C)C)NC(=O)[C@H](CC(C)C)NC(=O)[C@H](Cc1c[nH]c2ccccc12)NC(=O)[C@H](CCC(N)=O)NC(=O)[C@@H](NC(=O)[C@H](Cc1ccccc1)NC(=O)[C@H](CC(=O)O)NC(=O)[C@H](CCC(N)=O)NC(=O)[C@H](C)NC(=O)[C@H](CCCNC(=N)N)NC(=O)[C@H](CCCNC(=N)N)NC(=O)[C@H](CO)NC(=O)[C@H](CC(=O)O)NC(=O)[C@H](CC(C)C)NC(=O)[C@H](Cc1ccc(O)cc1)NC(=O)[C@H](CCCCN)NC(=O)[C@H](CO)NC(=O)[C@H](Cc1ccc(O)cc1)NC(=O)[C@H](CC(=O)O)NC(=O)[C@H](CO)NC(=O)[C@@H](NC(=O)[C@H](Cc1ccccc1)NC(=O)[C@@H](NC(=O)CNC(=O)[C@H](CCC(N)=O)NC(=O)[C@H](CO)NC(=O)[C@@H](N)Cc1c[nH]cn1)[C@@H](C)O)[C@@H](C)O)C(C)C)C(=O)N[C@H](C(=O)O)[C@@H](C)O)C(=O)O)C(=O)O)C(=O)O)C(=O)O [Example 53, N^ε28-[(4S)-4-[[(4S)-4-[[(4S)-4-[[(4S)-4-acetamido-4-carboxybutanoyl]amino]-4-carboxybutanoyl]amino]-4-carboxybutanoyl]amino]-4-carboxybutanoyl]-[Leu^27,Lys^28]-Glucagon]"
2,0.018,"CC(=O)N[C@@H](CCC(=O)N[C@@H](CCC(=O)N[C@@H](CCC(=O)N[C@@H](CCC(=O)NCCCC[C@H](NC(=O)[C@H](C)NC(=O)[C@H](CCCNC(=N)N)NC(=O)[C@H](CCCNC(=N)N)NC(=O)[C@H](CO)NC(=O)[C@H](CC(=O)O)NC(=O)[C@H](CC(C)C)NC(=O)[C@H](Cc1ccc(O)cc1)NC(=O)[C@H](CCCCN)NC(=O)[C@H](CO)NC(=O)[C@H](Cc1ccc(O)cc1)NC(=O)[C@H](CC(=O)O)NC(=O)[C@H](CO)NC(=O)[C@@H](NC(=O)[C@H](Cc1ccccc1)NC(=O)[C@@H](NC(=O)CNC(=O)[C@H](CCC(N)=O)NC(=O)[C@H](CO)NC(=O)[C@@H](N)Cc1c[nH]cn1)[C@@H](C)O)[C@@H](C)O)C(=O)N[C@@H](CC(=O)O)C(=O)N[C@@H](Cc1ccccc1)C(=O)N[C@H](C(=O)N[C@@H](CCC(N)=O)C(=O)N[C@@H](Cc1c[nH]c2ccccc12)C(=O)N[C@@H](CC(C)C)C(=O)N[C@@H](CC(C)C)C(=O)N[C@@H](CO)C(=O)N[C@H](C(=O)O)[C@@H](C)O)C(C)C)C(=O)O)C(=O)O)C(=O)O)C(=O)O [Example 54, N^ε20-[(4S)-4-[[(4S)-4-[[(4S)-4-[[(4S)-4-acetamido-4-carboxybutanoyl]amino]-4-carboxybutanoyl]amino]-4-carboxybutanoyl]amino]-4-carboxybutanoyl]-[Lys^20,Leu^27,Ser^28]-Glucagon]"
3,0.02,"CC(=O)N[C@@H](CCC(=O)N[C@@H](CCC(=O)N[C@@H](CCC(=O)N[C@@H](CCC(=O)NCCCC[C@H](NC(=O)[C@@H](NC(=O)[C@H](Cc1ccccc1)NC(=O)[C@H](CC(=O)O)NC(=O)[C@H](C)NC(=O)[C@H](C)NC(=O)[C@H](CCCNC(=N)N)NC(=O)[C@H](CCCNC(=N)N)NC(=O)[C@H](CC(C)C)NC(=O)[C@H](CC(=O)O)NC(=O)[C@H](CC(C)C)NC(=O)[C@H](Cc1ccc(O)cc1)NC(=O)[C@H](CCCNC(=N)N)NC(=O)[C@H](CO)NC(=O)[C@H](Cc1ccc(O)cc1)NC(=O)[C@H](CC(=O)O)NC(=O)[C@H](CO)NC(=O)[C@@H](NC(=O)[C@H](Cc1ccccc1)NC(=O)[C@@H](NC(=O)CNC(=O)[C@H](CCC(N)=O)NC(=O)[C@H](CO)NC(=O)[C@@H](N)Cc1c[nH]cn1)[C@@H](C)O)[C@@H](C)O)C(C)C)C(=O)N[C@@H](Cc1c[nH]c2ccccc12)C(=O)N[C@@H](CC(C)C)C(=O)N[C@@H](CC(C)C)C(=O)N[C@@H](CO)C(=O)N[C@H](C(=O)O)[C@@H](C)O)C(=O)O)C(=O)O)C(=O)O)C(=O)O [Example 56, N^ε24-[(4S)-4-[[(4S)-4-[[(4S)-4-[[(4S)-4-acetamido-4-carboxybutanoyl]amino]-4-carboxybutanoyl]amino]-4-carboxybutanoyl]amino]-4-carboxybutanoyl]-[Arg^12,Leu^16,Ala^20,Lys^24,Leu^27,Ser^28]-Glucagon] (H-HSQGTFTSDYSRYLDLRRAADFVK([γGlu-γGlu-γGlu-γGlu-Ac])WLLST-OH)"

# Reference: patent publication US20140031278A1, “Novel Glucagon Analogues” (NOVO NORDISK A/S, priority 2011, published 2014)
